Legend:
Nociceptin receptor [1] = biological target: T1, Nociceptin receptor (Homo sapiens, UniProt P41146); experiment: Binding affinity for opioid receptor like 1 expressed in HEK293 cells; assay type: cell-based
Nociceptin receptor [2] = biological target: T1, Nociceptin receptor; experiment: Partial agonistic activity determined by ability to stimulate GTP gamma S binding in comparison to nociceptin (N/OFQ)
[3] = biological target: Nociceptin receptor (Rattus norvegicus) (UniProt P35370); experiment: Partial Agonistic activity by its ability to stimulate NOP in comparison to DAMGO; assay type: functional
Sequence of Nociceptin receptor (Rattus norvegicus) (P35370 whole entry): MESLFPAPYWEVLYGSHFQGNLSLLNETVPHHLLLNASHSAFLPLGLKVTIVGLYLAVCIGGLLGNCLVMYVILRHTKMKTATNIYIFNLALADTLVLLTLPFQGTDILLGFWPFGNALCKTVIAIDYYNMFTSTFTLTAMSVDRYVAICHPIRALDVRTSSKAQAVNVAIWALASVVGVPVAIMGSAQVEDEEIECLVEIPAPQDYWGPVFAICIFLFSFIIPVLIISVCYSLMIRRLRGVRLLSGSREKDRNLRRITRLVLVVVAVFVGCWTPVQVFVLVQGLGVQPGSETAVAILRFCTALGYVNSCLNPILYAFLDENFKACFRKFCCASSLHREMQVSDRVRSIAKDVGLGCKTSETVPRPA

Mu-type opioid receptor = Mu-type opioid receptor (Homo sapiens, UniProt P35372); experiment: Binding affinity for recombinant human mu-opioid receptor was determined by using [3H]- diprenophine radioligand
Sequence of Mu-type opioid receptor (P35372 whole entry): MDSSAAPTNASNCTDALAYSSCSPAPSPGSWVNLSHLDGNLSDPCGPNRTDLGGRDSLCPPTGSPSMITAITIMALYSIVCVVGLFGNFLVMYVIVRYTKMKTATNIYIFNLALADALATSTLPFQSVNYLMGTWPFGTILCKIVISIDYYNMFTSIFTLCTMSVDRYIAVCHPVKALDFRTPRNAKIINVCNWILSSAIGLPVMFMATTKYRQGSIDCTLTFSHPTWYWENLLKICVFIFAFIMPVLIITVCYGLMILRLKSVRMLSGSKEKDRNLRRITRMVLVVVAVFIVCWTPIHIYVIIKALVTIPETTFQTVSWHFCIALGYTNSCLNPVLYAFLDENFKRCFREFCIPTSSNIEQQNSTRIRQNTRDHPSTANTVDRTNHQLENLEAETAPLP

Nociceptin receptor [4] = biological target: T1, Nociceptin receptor; experiment: Agonistic activity determined by ability to stimulate GTP gamma S binding in comparison to nociceptin (N/OFQ); parameters: concentration or dose not given beside the values
[5] = biological target: Nociceptin receptor (Rattus norvegicus) (UniProt P35370); experiment: Agonistic activity by its ability to stimulate NOP in comparison to DAMGO; assay type: functional
[6] = biological target: Nociceptin receptor (Rattus norvegicus) (UniProt P35370); experiment: Partial agonistic activity by its ability to stimulate NOP in comparison to DAMGO; assay type: functional
[7] = biological target: Mu opioid receptor (Rattus norvegicus) (UniProt P33535); experiment: Partial agonistic activity by its ability to stimulate GTP gamma S binding in comparison to DAMGO
Sequence of Mu opioid receptor (Rattus norvegicus) (P33535 whole entry, looked up): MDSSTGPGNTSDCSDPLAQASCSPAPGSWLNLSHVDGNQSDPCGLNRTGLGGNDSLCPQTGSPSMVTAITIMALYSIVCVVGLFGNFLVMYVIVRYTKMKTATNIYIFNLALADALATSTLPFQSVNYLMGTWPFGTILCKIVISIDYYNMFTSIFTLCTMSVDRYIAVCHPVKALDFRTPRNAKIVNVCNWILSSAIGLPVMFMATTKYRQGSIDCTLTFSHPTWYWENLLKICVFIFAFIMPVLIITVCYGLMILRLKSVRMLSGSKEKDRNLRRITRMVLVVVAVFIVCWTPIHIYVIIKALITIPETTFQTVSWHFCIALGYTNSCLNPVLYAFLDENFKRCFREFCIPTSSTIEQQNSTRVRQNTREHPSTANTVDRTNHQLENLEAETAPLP

T1 sequence (P41146 whole entry): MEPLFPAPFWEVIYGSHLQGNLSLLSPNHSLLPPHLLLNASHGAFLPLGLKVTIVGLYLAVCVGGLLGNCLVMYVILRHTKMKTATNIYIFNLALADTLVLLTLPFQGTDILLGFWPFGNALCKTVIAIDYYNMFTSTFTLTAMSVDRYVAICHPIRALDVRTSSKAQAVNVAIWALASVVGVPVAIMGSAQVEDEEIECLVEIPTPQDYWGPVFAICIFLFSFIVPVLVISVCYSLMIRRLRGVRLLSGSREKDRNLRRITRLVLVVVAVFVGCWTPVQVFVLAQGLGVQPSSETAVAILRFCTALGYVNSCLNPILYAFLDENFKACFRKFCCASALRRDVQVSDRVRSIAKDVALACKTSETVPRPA

| SMILES | Ki (Nociceptin receptor [1]) [nM] | Ki (Mu-type opioid receptor) [nM] | Activity (Nociceptin receptor [4]) [%] | further results |
| --- | --- | --- | --- | --- |
| OC1(c2ccc(Cl)cc2)CCN(CCC(c2ccccc2)c2ccccc2)CC1 | 372 | 37 | – | Activity (Nociceptin receptor [2]): > 10%; Activity [3]: > 10% |
| [O-][N+]1(Cc2ccc3ccccc3c2)CCC(O)(c2ccc(Cl)c(C(F)(F)F)c2)CC1 (stereo not drawn) | > 10000 | > 10000 | – | – |
| COC(=O)C(CCN1CCC(O)(c2ccc(Cl)c(C(F)(F)F)c2)CC1)(c1ccccc1)c1ccccc1 | 149 | 0.3 | > 75 | Activity [5]: > 75% |
| [O-][N+]1(CCC(c2ccccc2)c2ccccc2)CCC(O)(c2cccc(C(F)(F)F)c2)CC1 (stereo not drawn) | > 10000 | 8130 | – | – |
| O=C(O)C(CCN1CCC(O)(c2ccc(Cl)c(C(F)(F)F)c2)CC1)(c1ccccc1)c1ccccc1 | > 10000 | 489 | > 75 | – |
| CN(C)C(=O)C(CCN1CCC(O)(c2ccc(Cl)c(C(F)(F)F)c2)CC1)(c1ccccc1)c1ccccc1 [FLUPERAMIDE] | 2150 | 0.11 | > 75 | – |
| OC1(c2ccc(Cl)c(C(F)(F)F)c2)CCN(Cc2ccc(C(F)(F)F)cc2)CC1 | – | 104 | – | Activity (Nociceptin receptor [2]): > 10% |
| OC1(c2cccc(C(F)(F)F)c2)CCN(CCC(c2ccccc2)c2ccccc2)CC1 | – | – | > 75 | Activity [5]: > 75% |
| CN(C)C(=O)C(CCN1CCC(O)(c2ccc(Cl)cc2)CC1)(c1ccccc1)c1ccccc1 [LOPERAMIDE] | > 10000 | – | > 75 | – |
| [O-][N+]1(CCC(c2ccccc2)c2ccccc2)CCC(O)(c2ccc(Cl)c(C(F)(F)F)c2)CC1 (stereo not drawn) | > 10000 | > 10000 | – | – |
| OC1(c2ccc(Cl)c(C(F)(F)F)c2)CCN(Cc2ccc3ccccc3c2)CC1 | – | 2.5 | – | Activity [6]: > 10% |
| CN(C)C(=O)C(CCN1CCC(O)(c2cccc(C(F)(F)F)c2)CC1)(c1ccccc1)c1ccccc1 | 505 | 0.16 | > 75 | Activity [5]: > 75% |
| N#Cc1ccc(CN2CCC(O)(c3ccc(Cl)c(C(F)(F)F)c3)CC2)cc1 | – | > 10000 | – | – |
| O=C(O)C(CCN1CCC(O)(c2cccc(C(F)(F)F)c2)CC1)(c1ccccc1)c1ccccc1 | > 10000 | 331 | > 75 | – |
| COC(=O)C(CCN1CCC(O)(c2cccc(C(F)(F)F)c2)CC1)(c1ccccc1)c1ccccc1 | 78 | 0.11 | > 75 | Activity [5]: > 75% |
| OC1(c2ccc(Cl)c(C(F)(F)F)c2)CCN(CCC(c2ccccc2)c2ccccc2)CC1 | – | – | > 75 | Activity [7]: > 10% |
| O=C(O)C(CCN1CCC(O)(c2ccc(Cl)cc2)CC1)(c1ccccc1)c1ccccc1 | > 10000 | – | > 75 | – |
| COC(=O)C(CCN1CCC(O)(c2ccc(Cl)cc2)CC1)(c1ccccc1)c1ccccc1 | 590 | 0.23 | > 75 | Activity [5]: > 75% |
